Consider six compounds from patent US10457679B2, “Imidazo[4,5-c]quinolin-2-one compounds and their use in treating cancer” (AstraZeneca AB, priority 2015, dated 2019).

Holding throughout (type): cell-based
The target in one assay is T1, ATR kinase (Homo sapiens, UniProt Q13535).
T1 construct: measuring a decrease in phosphorylation of Chk1 (Ser 345) in HT29 cells; endogenous in cells; host or cells: HT29 cells (ECACC #85061109)
The experiment in a line: Assay b) ATR cellular potency (pChk1 Ser345 in HT29 cells after 4NQO). The conditions noted are these: HT29 cells, 4NQO, pChk1 Ser345; may be geometric mean of several tests; read-out: Assay b) ATR Cell IC50. An excerpt:
Assay b): ATR Cellular Potency
ATR is a PI 3-kinase-related kinase which phosphorylates multiple substrates on serine or threonine residues in response to DNA damage during or replication blocks. Chk1, a downstream protein kinase of ATR, plays a key role in DNA damage checkpoint control. Activation of Chk1 involves phosphorylation of Ser317 and Ser345 (the latter regarded as the preferential target for phosphorylation/activation by ATR).
The following morning compound of Formula (I) in 100% DMSO were added to assay plates by acoustic dispensing. After 1 h incubation at 37° C. and 5% CO2. 40 nl of 3 mM 4NQO in 100% DMSO was added to all wells by acoustic dispensing, except minimum control wells which were left untreated with 4NQO to generate a null response control. Plates were returned to the incubator for a further 1 h. […] Then 20 μl of 0.1% Triton X100 in PBS was added and incubated for 10 minutes at r.t., to permeabalise cells. Then the plates were washed once with 50 μl/well PBS, using a Biotek EL405 plate washer.
After 2 h incubation at r.t., the plates were washed three times with 50 μl/well PBS, using a Biotek EL405 plate washer, and plates were then sealed with black plate seals until read. Plates were read using an ArrayScan VTI instrument, using an XF53 filter with 10× objective.

For another assay, the target named is PI3K-α (Homo sapiens, UniProt P42336). The experiment in a line: Assay c) PI3K cellular potency (phospho-Akt T308 ELISA in BT474 cells). The note with it: BT474 cells, 2 h, phospho-AKT T308; may be geometric mean of several tests; read-out: Assay c) PI3Kα Cell IC50. The source says: Assay c): PI3K Cellular Potency
This assay was used to measure PI3K-α inhibition in cells. PDK1 was identified as the upstream activation loop kinase of protein kinase B (Akt 1), which is essential for the activation of PKB. Activation of the lipid kinase phosphoinositide 3 kinase (PI3K) is critical for the activation of PKB by PDK1.
Following ligand stimulation of receptor tyrosine kinases, PI3K is activated, which converts PIP2 to PIP3, which is bound by the PH domain of PDK1 resulting in recruitment of PDK1 to the plasma membrane where it phosphorylates AKT at Thr308 in the activation loop.
The aim of this cell-based mode of action assay is to identify compounds that inhibit PDK activity or recruitment of PDK1 to membrane by inhibiting PI3K activity. Phosphorylation of phospho-Akt (T308) in BT474c cells following treatment with compounds for 2 h is a direct measure of PDK1 and indirect measure of PI3K activity.
BT474 cells (human breast ductal carcinoma, ATCC HTB-20) were seeded into black 384 well plates (Costar, #3712) at a density of 5600 cells/well in DMEM containing 10% FBS and 1% glutamine and allowed to adhere overnight.
The following morning compounds in 100% DMSO were added to assay plates by acoustic dispensing. After a 2 h incubation at 37° C. and 5% CO2, the medium was aspirated and the cells were lysed with a buffer containing 25 mM Tris, 3 mM EDTA, 3 mM EGTA, 50 mM sodium fluoride, 2 mM Sodium orthovanadate, 0.27M sucrose, 10 mM β-glycerophosphate, 5 mM sodium pyrophosphate, 0.5% Triton X-100 and complete protease inhibitor cocktail tablets (Roche #04 693 116 001, used 1 tab per 50 ml lysis buffer).
After 20 minutes, the cell lysates were transferred into ELISA plates (Greiner #781077) which had been pre-coated with an anti total-AKT antibody in PBS buffer and non-specific binding was blocked with 1% BSA in PBS containing 0.05% Tween 20. Plates were incubated over night at 4° C. The next day the plates were washed with PBS buffer containing 0.05% Tween 20 and further incubated with a mouse monoclonal anti-phospho AKT T308 for 2 h. Plates were washed again as above before addition of a horse anti-mouse-HRP conjugated secondary antibody. Following a 2 h incubation at r.t., plates were washed and QuantaBlu substrate working solution (Thermo Scientific #15169, prepared according to provider's instructions) was added to each well. The developed fluorescent product was stopped after 60 minutes by addition of Stop solution to the wells. Plates were read using a Tecan Safire plate reader using 325 nm excitation and 420 nm emission wavelengths respectively. Except where specified, reagents contained in the Path Scan Phospho AKT (Thr308) sandwich ELISA kit from Cell Signalling (#7144) were used in this ELISA assay.

Another assay deals with T2, mTOR (Homo sapiens, UniProt P42345).
T2 construct: endogenous in cells; host or cells: MDA-MB-468 cells (ATCC HTB 132)
The experiment in a line: Assay d) mTOR cellular potency (phospho-AKT Ser473 in MDA-MB-468 cells). On the procedure: Assay d): mTOR Cellular Potency
This assay was used to measure mTOR inhibition in cells. The aim of the phospho-AKT cell based mechanism of action assay using the Acumen Explorer is to identify inhibitors of either PI3Kα or mTOR-Rictor (Rapamycin insensitive companion of mTOR). This is measured by any decrease in the phosphorylation of the Akt protein at Ser473 (AKT lies downstream of PI3Kα in the signal transduction pathway) in the MDA-MB-468 cells following treatment with compound. Method Details:
MDA-MB-468 cells (human breast adenocarcinoma #ATCC HTB 132) were seeded at 1500 cells/well in 40 μl of DMEM containing 10% FBS and 1% glutamine into Greiner 384 well black flat-bottomed plates. Cell plates were incubated for 18 h in a 37° C. incubator before dosing with compounds of Formula (I) in 100% DMSO using acoustic dispensing. Compounds were dosed in a 12 point concentration range into a randomised plate map. Control wells were generated either by dosing of 100% DMSO (max signal) or addition of a reference compound (a PI3K-β inhibitor) that completely eliminated the pAKT signal (min control). Compounds were then tested by one of two assay protocols A or B:
Plates were incubated at 37° C. for 2 h; cells were then fixed by the addition of 10 μl of a 3.7% formaldehyde solution. After 30 minutes the plates were washed with PBS using a Tecan PW384 plate washer. Wells were blocked and cells permeabilised with the addition of 40 μl of PBS containing 0.5% Tween20 and 1% Marvel™ (dried milk powder) and incubated for 60 minutes at r.t. The plates were washed with PBS containing 0.5% (v/v) Tween20 and 20 μl rabbit anti-phospho AKT Ser473 (Cell Signalling Technologies, #3787) in same PBS-Tween+1% Marvel™ was added and incubated overnight at 4° C.
Plates were washed 3 times with PBS+0.05% Tween 20 using a Tecan PW384. 20 μl of secondary antibody Alexa Fluor 488 anti-Rabbit (Molecular Probes, #A11008) diluted in PBS+0.05% Tween20 containing 1% Marvel™ was added to each well and incubated for 1 h at r.t. Plates were washed three times as before then 20 μl PBS added to each well and plates sealed with a black plate sealer.
The plates were read on an Acumen plate reader as soon as possible, measuring green fluorescence after excitation with 488 nm laser. Using this system IC50 values were generated and quality of plates was determined by control wells. Reference compounds were run each time to monitor assay performance.
The cell plates were then incubated for 2 h at 37° C. before being fixed by the addition of 20 μl 3.7% formaldehyde in PBS/A (1.2% final concentration), followed by a 30 minute room temperature incubation, and then a 2× wash with 150 μl PBS/A using a BioTek ELx406 platewasher. Cells were permeabilised and blocked with 20 μl of assay buffer (0.1% Triton X-100 in PBS/A+1% BSA) for 1 h at room temperature, and then washed 1× with 50 μl PBS/A. Primary phospho-AKT (Ser473) D9E XP® rabbit monoclonal antibody (#4060, Cell Signaling Technology) was diluted 1:200 in assay buffer, 20 μl added per well, and plates were incubated at 4° C. overnight. Cell plates were washed 3× with 200 μl PBS/T, then 20 μl 1:750 dilution in assay buffer of Alexa Fluor® 488 goat anti-rabbit IgG secondary antibody (#A11008, Molecular Probes, Life Technologies), with a 1:5000 dilution of Hoechst 33342, was added per well. Following a 1 h incubation at room temperature, plates were washed 3× with 200 μl PBS/T, and 40 μl PBS w/o Ca, Mg and Na Bicarb (Gibco #14190-094) was added per well.
Stained cell plates were covered with black seals, and then read on the Cell Insight imaging platform (Thermo Scientific), with a 10× objective. The primary channel (Hoechst blue fluorescence 405 nM, BGRFR_386_23) was used to Autofocus and to count number of events (this provided information about cytotoxicity of the compounds tested). The secondary channel (Green 488 nM, BGRFR_485_20) measured pAKT staining. […]

For the next assay, the target named is T3, ATM kinase (Homo sapiens, UniProt Q13315).
T3 construct: endogenous in cells; host or cells: HT29 cells (ECACC #85061109)
The experiment in a line: Assay a) ATM cellular potency (pATM Ser1981 in X-ray irradiated HT29 cells). The note with it: HT29 cells, 1 h compound, X-ray ~600 cGy, pATM Ser1981; may be geometric mean of several tests; read-out: Assay a) ATM Cell IC50. On the procedure: The following assays were used to measure the effects of the compounds of the present invention: a) ATM cellular potency assay; b) PI3K cellular potency assay; c) mTOR cellular potency assay; d) ATR cellular potency assay. During the description of the assays, generally: • i. […] IC50 values were calculated using a smart fitting model in Genedata. […] Assay a): ATM Cellular Potency Rationale:
Most ATM molecules in the cell are rapidly phosphorylated on this site after doses of radiation as low as 0.5 Gy, and binding of a phosphospecific antibody is detectable after the introduction of only a few DNA double-strand breaks in the cell.
The rationale of the pATM assay is to identify inhibitors of ATM in cells. HT29 cells are incubated with test compounds for 1 hr prior to X-ray-irradiation. 1 h later the cells are fixed and stained for pATM (Ser1981). The fluorescence is read on the arrayscan imaging platform.
The following morning compounds of Formula (I) in 100% DMSO were added to assay plates by acoustic dispensing. After 1 h incubation at 37° C. and 5% CO2, plates (up to 6 at a time) were irradiated using the X-RAD 320 instrument (PXi) with equivalent to ˜600 cGy. Plates were returned to the incubator for a further 1 h. […] Then 20 μl of 0.1% Triton X100 in PBS was added and incubated for 20 minutes at r.t., to permeabalise cells. Then the plates were washed once with 50 μl/well PBS, using a Biotek EL405 plate washer.
After 1 h incubation at r.t., the plates were washed three times with 50 μl/well PBS, using a Biotek EL405 plate washer, and plates were sealed and kept in PBS at 4° C. until read. Plates were read using an ArrayScan VTI instrument, using an XF53 filter with 10× objective.

Where [1] appears, read: pAKT Ser473, Protocol B (*); read-out: Assay d) mTOR Cell IC50.

Read-outs that look alike come from different tables or passages of the source.

T1 sequence (Q13535 whole entry): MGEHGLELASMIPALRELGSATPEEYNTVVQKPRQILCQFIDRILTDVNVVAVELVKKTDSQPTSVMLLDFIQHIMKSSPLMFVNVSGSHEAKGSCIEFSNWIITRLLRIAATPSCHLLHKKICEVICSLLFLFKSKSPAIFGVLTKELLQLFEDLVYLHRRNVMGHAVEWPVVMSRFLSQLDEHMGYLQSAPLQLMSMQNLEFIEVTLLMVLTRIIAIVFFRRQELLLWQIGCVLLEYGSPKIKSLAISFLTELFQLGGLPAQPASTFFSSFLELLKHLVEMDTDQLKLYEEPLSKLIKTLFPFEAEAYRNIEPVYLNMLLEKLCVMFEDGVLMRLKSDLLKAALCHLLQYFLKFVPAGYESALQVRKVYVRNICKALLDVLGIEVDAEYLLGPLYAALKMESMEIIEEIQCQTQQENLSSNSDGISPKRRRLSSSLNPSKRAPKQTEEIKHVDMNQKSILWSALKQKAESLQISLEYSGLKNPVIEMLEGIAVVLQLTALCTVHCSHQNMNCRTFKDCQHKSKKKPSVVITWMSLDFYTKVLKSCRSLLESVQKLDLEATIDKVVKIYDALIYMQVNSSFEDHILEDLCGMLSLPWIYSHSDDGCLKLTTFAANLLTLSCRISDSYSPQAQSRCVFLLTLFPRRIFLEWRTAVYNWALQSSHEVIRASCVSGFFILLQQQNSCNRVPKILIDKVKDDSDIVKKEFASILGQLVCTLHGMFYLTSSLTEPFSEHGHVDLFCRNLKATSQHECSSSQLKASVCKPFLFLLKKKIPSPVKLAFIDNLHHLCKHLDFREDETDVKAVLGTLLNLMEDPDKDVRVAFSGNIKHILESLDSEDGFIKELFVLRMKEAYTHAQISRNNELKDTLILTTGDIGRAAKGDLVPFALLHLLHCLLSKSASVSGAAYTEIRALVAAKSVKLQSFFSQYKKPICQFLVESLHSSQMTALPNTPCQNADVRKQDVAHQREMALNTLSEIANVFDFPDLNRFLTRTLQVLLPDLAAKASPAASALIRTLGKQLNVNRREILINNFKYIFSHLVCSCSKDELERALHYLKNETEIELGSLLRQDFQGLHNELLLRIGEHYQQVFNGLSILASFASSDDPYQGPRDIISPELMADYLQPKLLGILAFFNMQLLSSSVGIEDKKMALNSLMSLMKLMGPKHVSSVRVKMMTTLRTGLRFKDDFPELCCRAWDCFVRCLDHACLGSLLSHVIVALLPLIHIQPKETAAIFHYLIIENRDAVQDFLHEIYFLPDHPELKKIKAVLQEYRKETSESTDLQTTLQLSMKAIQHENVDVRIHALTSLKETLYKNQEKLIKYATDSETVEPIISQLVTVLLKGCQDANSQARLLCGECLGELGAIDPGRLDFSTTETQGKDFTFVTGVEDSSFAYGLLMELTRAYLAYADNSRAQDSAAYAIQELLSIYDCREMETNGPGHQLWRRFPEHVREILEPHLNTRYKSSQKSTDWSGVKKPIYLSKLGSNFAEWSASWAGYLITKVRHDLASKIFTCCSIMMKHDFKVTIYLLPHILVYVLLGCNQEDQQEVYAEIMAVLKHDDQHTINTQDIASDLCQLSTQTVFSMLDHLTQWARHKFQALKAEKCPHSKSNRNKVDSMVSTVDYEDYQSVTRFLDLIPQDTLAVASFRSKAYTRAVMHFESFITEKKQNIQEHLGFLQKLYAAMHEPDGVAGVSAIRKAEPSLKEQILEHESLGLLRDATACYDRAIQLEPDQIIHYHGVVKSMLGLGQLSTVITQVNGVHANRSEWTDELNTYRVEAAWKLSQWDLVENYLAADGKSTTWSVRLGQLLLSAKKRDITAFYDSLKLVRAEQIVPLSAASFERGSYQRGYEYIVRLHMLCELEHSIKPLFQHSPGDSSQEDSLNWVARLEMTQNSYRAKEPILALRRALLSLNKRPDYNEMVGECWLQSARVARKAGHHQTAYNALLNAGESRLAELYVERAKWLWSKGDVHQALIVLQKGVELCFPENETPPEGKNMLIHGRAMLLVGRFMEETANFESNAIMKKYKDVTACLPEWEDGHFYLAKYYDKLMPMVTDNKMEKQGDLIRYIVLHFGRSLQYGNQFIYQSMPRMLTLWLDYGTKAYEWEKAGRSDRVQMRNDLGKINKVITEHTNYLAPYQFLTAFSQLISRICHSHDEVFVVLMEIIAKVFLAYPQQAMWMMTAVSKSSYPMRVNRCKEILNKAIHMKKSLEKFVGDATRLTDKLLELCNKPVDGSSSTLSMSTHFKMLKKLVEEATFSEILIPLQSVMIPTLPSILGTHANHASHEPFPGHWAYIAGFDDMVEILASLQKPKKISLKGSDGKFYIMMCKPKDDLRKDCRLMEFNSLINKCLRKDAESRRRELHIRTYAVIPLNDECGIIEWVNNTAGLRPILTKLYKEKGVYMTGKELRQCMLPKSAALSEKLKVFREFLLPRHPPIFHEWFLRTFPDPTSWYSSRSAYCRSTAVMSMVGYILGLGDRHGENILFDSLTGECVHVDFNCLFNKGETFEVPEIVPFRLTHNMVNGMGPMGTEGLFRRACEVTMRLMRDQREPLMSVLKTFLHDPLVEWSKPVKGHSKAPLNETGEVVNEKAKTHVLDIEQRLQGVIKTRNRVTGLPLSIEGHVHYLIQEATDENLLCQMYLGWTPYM
T1 sequence (Q8WXE1 whole entry partner): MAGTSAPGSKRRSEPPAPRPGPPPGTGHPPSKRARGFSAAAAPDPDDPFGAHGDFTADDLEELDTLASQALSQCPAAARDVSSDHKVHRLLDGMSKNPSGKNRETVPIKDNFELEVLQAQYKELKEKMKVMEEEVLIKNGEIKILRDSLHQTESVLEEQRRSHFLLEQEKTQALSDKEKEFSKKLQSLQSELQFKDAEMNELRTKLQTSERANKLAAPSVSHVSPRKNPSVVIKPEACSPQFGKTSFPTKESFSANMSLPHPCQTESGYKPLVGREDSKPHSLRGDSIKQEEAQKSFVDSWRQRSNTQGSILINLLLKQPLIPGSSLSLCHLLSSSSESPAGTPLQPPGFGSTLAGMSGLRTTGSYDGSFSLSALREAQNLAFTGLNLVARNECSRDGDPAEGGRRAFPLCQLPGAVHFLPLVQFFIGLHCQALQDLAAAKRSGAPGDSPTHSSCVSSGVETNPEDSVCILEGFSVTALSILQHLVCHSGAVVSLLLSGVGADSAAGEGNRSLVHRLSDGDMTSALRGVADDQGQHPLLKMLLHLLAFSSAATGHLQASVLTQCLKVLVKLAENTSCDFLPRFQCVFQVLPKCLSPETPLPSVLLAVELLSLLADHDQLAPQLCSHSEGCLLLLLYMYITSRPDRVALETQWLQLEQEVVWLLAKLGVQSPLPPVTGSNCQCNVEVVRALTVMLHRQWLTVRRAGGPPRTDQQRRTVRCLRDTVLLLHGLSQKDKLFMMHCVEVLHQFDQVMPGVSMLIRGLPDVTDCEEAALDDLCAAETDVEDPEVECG
Chain of PI3K-α (P42336 whole entry): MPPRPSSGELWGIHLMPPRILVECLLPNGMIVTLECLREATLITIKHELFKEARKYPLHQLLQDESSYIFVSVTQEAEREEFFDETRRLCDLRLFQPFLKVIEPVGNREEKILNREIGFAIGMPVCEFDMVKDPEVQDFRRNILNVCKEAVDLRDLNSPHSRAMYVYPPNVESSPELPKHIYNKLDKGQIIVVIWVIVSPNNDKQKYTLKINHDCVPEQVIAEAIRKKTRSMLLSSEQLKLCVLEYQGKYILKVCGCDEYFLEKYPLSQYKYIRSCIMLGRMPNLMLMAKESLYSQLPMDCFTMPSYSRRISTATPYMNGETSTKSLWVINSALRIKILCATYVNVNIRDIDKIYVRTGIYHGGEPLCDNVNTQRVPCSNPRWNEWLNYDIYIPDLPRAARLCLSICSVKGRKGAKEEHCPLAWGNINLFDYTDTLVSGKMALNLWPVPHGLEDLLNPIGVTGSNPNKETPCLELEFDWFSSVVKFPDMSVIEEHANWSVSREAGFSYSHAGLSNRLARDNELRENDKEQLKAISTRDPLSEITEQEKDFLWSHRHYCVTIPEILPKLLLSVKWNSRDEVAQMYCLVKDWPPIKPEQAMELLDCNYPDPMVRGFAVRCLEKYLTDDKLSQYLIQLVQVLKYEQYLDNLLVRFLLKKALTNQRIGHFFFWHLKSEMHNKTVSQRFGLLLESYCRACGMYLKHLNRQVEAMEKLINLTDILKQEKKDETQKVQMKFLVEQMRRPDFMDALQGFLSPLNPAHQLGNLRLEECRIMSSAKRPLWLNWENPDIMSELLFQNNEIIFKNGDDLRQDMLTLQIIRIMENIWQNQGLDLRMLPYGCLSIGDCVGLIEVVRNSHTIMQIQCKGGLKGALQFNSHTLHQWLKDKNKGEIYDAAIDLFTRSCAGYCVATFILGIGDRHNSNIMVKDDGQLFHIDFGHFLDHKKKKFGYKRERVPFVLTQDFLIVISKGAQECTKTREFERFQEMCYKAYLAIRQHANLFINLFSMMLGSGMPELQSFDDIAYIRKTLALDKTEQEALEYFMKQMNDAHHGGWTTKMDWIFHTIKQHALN

A word on the IC50: it is the concentration that inhibits the measured activity by half. Consider `CC(C)n1c(=O)n(C)c2cnc3cc(F)c(-c4ccc(OCCCN(C)C)nc4)cc3c21` [Example 1, 8-[6-[3-(Dimethylamino)propoxy]-3-pyridyl]-7-fluoro-1-isopropyl-3-methyl-imidazo[4,5-c]quinolin-2-one], for which the half-inhibitory concentration (IC50) was greater than 30000 nM at ATR kinase, 13400 nM on PI3K-α and greater than 30000 nM at mTOR (setting [1]).
In the case of `CC(C)n1c(=O)n(C)c2cnc3ccc(-c4ccc(OCCCN5CCCCC5)nc4)cc3c21` [Example 5, 1-Isopropyl-3-methyl-8-[6-[3-(l-piperidyl)propoxy]-3-pyridyl]imidazo[4,5-c]quinolin-2-one], the IC50 at PI3K-α was 1240 nM; on mTOR (setting [1]), 6760 nM.
With `CC(C)n1c(=O)n(C)c2cnc3cc(F)c(-c4ccc(OCCCN(C)C)nc4F)cc3c21` [Example 11, 8-[6-[3-(dimethylamino)propoxy]-2-fluoro-3-pyridyl]-7-fluoro-1-isopropyl-3-methyl-imidazo[4,5-c]quinolin-2-one], the IC50 on ATM kinase was 2.28 nM; at ATR kinase it was greater than 30000 nM; at mTOR (pAKT Ser473, Protocol A (§); read-out: Assay d) mTOR Cell IC50), 23600 nM.
In the case of `CC(C)n1c(=O)[nH]c2cnc3cc(F)c(-c4ccc(OCCCN(C)C)nc4)cc3c21` [Example 17, 8-[6-[3-(Dimethylamino)propoxy]-3-pyridyl]-7-fluoro-1-isopropyl-3H-imidazo[4,5-c]quinolin-2-one], the IC50 at ATM kinase is 4.61 nM; at ATR kinase, greater than 30000 nM; on mTOR (setting [1]) it was greater than 10000 nM.
`Cn1c(=O)n(C2CC2)c2c3cc(-c4cnc5[nH]ccc5c4)ccc3ncc21` [CN102399218A Compound 62, reference compound]: the IC50 on ATM kinase is 135 nM; at ATR kinase it was 55.3 nM.
Take `CC(C)n1c(=O)n(C)c2cnc3ccc(-c4ccc(OCCCN5CCC5)nc4F)cc3c21` [Example 15, 8-[6-[3-(azetidin-1-yl)propoxy]-2-fluoro-3-pyridyl]-1-isopropyl-3-methyl-imidazo[4,5-c]quinolin-2-one]: the values for the IC50 on ATM kinase, on ATR kinase and on mTOR (setting [1]) were 2.14 nM, greater than 30000 nM and greater than 300 nM, respectively.
